Laboratory results from article PMC5514901, “Synthesis and evaluation of anthranilamide-based derivatives as FXa inhibitors” (Oncotarget, 2017).

What was measured:
human plasma = test: Prothrombin time (PT) assay; assay type: biochemical; details: concentration doubling prothrombin time in human plasma
Method: A commercially available automatic coagulometer (Steellex Science Instrument Co., Ltd., Beijing, China) was employed to measure PT. The clotting times were also measured using the instrument itself, in accordance with the manufacturer's instructions. Increasing concentrations of inhibitor or solvent were added to human plasma and incubated for 3 min at 37°C. Prothrombin time (PT) was determined by automatic coagulometer.

human FXa = molecular target: T1, human FXa (Homo sapiens, UniProt P00742); test: Inhibition activity measurement against FXa (chromogenic substrate CS-11(22)); assay type: biochemical; details: human FXa; for IC50: chromogenic substrate, 37°C, read at 405 nm
T1 construct: purchased Hyphen BioMed
T1 sequence (P00742 235-488 limits assumed): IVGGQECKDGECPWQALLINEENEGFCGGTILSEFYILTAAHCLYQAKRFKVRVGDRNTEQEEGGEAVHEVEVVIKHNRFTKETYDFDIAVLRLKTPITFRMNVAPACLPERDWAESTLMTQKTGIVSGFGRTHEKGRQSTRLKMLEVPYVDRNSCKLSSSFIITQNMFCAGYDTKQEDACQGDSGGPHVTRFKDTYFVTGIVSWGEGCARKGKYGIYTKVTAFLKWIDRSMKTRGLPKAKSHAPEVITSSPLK
T1 sequence (P00742 41-179 partner limits assumed): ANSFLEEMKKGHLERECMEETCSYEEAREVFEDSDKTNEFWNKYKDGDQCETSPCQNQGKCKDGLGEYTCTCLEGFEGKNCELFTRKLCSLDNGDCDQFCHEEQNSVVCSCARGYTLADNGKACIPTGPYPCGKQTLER
Method: The inhibition of FXa was measured using human FXa (Hyphen BioMed, city, Paris, FRA) and chromogenic substrate CS-11(22) (Hyphen BioMed, Paris, FRA) in 384-well microtiter plates at room temperature. […] 2 μL of FXa (56.8 nM), 16 μL of Tris buffer (adjust to pH 7.4 with HCl containing 0.3 M NaCl and 50 mM Tris) and 3 μL of test compound were added to the well, respectively. The negative control was composed of the same mixed solutions except replacing test compound with DMSO. […] After incubated at 37°C for 5 min, 8 μL of FXa substrate solution (3.5 mM) was added and then incubated at 37°C for 25 min. The FXa activity was measured at 405 nm using a SpectraMax M5 (Molecular Devices, Sunnyvale, CA, USA). The IC50 was calculated by the software named SPSS (IBM, North Castle, NY, USA) and the Probit function in it.

human FIIa (thrombin) = test system: human FIIa (thrombin); parameters: method as in PMID 16305517; details: read-out: IC50 against thrombin; cited from earlier work

| melting point [°C] | Ki (human FXa) [µM] | IC50 (human FXa) [µM] | Compound | 2 × PT (Human) (human plasma) [µM] | IC50 (human FIIa (thrombin)) [µM] |
| --- | --- | --- | --- | --- | --- |
| > 250 | 0.0254 | 0.0355 | Cc1ccc(NC(=O)c2ccc(Cl)cc2Cl)c(C(=O)Nc2ccc(-n3ccccc3=O)cc2)c1 [6k-b, 2,4-dichloro-N-(4-methyl-2-((4-(2-oxopyridin-1(2H)-yl)phenyl)carbamoyl)phenyl)benzamide] | 11.3 | – |
| – | – | – | O=C(NC[C@H]1CN(c2ccc(N3CCOCC3=O)cc2)C(=O)O1)c1ccc(Cl)s1 [rivaroxaban, reference compound] | 0.2 | 6.9 |
| > 250 | 0.0586 | 0.082 | O=C(Nc1ccc(Cl)cc1C(=O)Nc1ccc(-n2ccccc2=O)cc1)c1ccc(Cl)cc1Cl [6k-a, 2,4-dichloro-N-(4-chloro-2-((4-(2-oxopyridin-1(2H)-yl)phenyl)carbamoyl)phenyl)benzamide] | 16.9 | – |
| > 250 | 0.017 | 0.0238 | O=C(Nc1ccccc1C(=O)Nc1ccc(-n2ccccc2=O)cc1)c1ccc(Cl)cc1Cl [6k, 2,4-dichloro-N-(2-((4-(2-oxopyridin-1(2H)-yl)phenyl)arbamoyl)phenyl)benzamide] | 16.4 | – |
| > 250 | – | > 1 | Cc1ccc(C(=O)Nc2ccccc2C(=O)Nc2ccc(-n3ccccc3=O)cc2)s1 [6b, 5-methyl-N-(2-((4-(2-oxopyridin-1(2H)-yl)phenyl)carb-amoyl)phenyl)thiophene-2-carboxamide] | – | – |
| > 250 | 0.0205 | 0.0287 | O=C(Nc1ccccc1C(=O)Nc1ccc(-n2ccccc2=O)cc1)c1ccc(Br)s1 [6a, 5-bromo-N-(2-((4-(2-oxopyridin-1(2H)-yl)phenyl)carb-amoyl)phenyl)thiophene-2-carboxamide] | 8.4 | – |
| > 250 | – | 0.278 | O=C(Nc1ccccc1C(=O)Nc1ccc(-n2ccccc2=O)cc1)c1ccc(Cl)nc1 [6h, 6-chloro-N-(2-((4-(2-oxopyridin-1(2H)-yl)phenyl)carb-amoyl)phenyl)nicotinamide] | – | – |
| > 250 | – | 0.125 | O=C(Nc1ccc(Cl)cc1C(=O)Nc1ccc(N2CCOCC2=O)cc1)c1ccc(Br)s1 [6a-e, 5-bromo-N-(4-chloro-2-((4-(3-oxomorpholino)phenyl)carbamoyl)phenyl)thiophene-2-carboxamide] | 3.8 | – |
| > 250 | – | 0.181 | COc1ccc(C(=O)Nc2ccccc2C(=O)Nc2ccc(-n3ccccc3=O)cc2)cc1 [6l, 2-(4-methoxybenzamido)-N-(4-(2-oxopyridin-1(2H)-yl)phenyl)benzamide] | – | – |
| > 250 | – | 0.282 | Cc1ccc(NC(=O)c2ccc(Cl)cc2Cl)c(C(=O)Nc2ccc(N3CCOCC3=O)cc2)c1 [6k-f, 2,4-dichloro-N-(4-methyl-2-((4-(3-oxomorpholino)phe-nyl)carbamoyl)phenyl)benzamide] | – | – |
| > 250 | 0.0134 | 0.0188 | Cc1ccc(NC(=O)c2ccc(Br)s2)c(C(=O)Nc2ccc(-n3ccccc3=O)cc2)c1 [6a-b, 5-bromo-N-(4-methyl-2-((4-(2-oxopyridin-1(2H)-yl)ph-enyl)carbamoyl)phenyl)thiophene-2-carboxamide] | 4.2 | – |
